In ChEMBL document CHEMBL1153781, “Prediction of volume of distribution values in human using immobilized artificial membrane partitioning coefficients, the fraction of compound ionized and plasma protein binding data” (Eur J Med Chem, 2009):

Legend:
[1] = Dissociation constant, pKa of the compound; assay type: physicochemical
Plasma = settings: human
Description: Fraction unbound in human plasma

clinical = settings: human, in vivo

Structure (SMILES) | pKa [1] | fu (Plasma) | Vd (clinical)
CCn1cc(C(=O)O)c(=O)c2cc(F)c(N3CCNCC3)cc21 [NORFLOXACIN] | 6.3 | 0.85 | 2.8 L/kg
CCn1cc(C(=O)O)c(=O)c2cc(F)c(N3CCNC(C)C3)c(F)c21 (stereo not given) [LOMEFLOXACIN] | 5.99 | 0.89 | 2.3 L/kg
CCCCN1CCCCC1C(=O)Nc1c(C)cccc1C (stereo not given) [BUPIVACAINE] | 8.16 | 0.044 | 0.7 L/kg
Cc1ccc(S(=O)(=O)NC(=O)NN2CC3CCCC3C2)cc1 (stereo not given) [GLICLAZIDE] | 5.98 | 0.09 | 0.36 L/kg
CC1(C)S[C@@H]2[C@H](NC(=O)[C@H](N)c3ccc(O)cc3)C(=O)N2[C@H]1C(=O)O [AMOXICILLIN] | 2.4 | 0.82 | 0.85 L/kg
CN1CCOC(c2ccccc2)c2ccccc2C1 (stereo not given) [NEFOPAM] | 9.3 | 0.27 | 7.23 L/kg
CO/N=C(\C(=O)N[C@@H]1C(=O)N2C(C(=O)O)=C(COC(C)=O)CS[C@H]12)c1csc(N)n1 [CEFOTAXIME] | 3.75 | 0.6 | 0.28 L/kg
COC(=O)CCc1ccc(OCC(O)CNC(C)C)cc1 (stereo not given) [ESMOLOL] | […] | 0.45 | 1.9 L/kg
CCn1cc(C(=O)O)c(=O)c2cc(F)c(N3CCNCC3)nc21 [ENOXACIN] | 6.3 | 0.485 | 1.96 L/kg
CCCC(C)C1(CC)C(=O)NC(=O)NC1=O (stereo not given) [PENTOBARBITAL] | 8.1 | 0.45 | 1 L/kg
